Reference: patent publication US20250270209A1 (INTERLINE THERAPEUTICS, INC., priority 2022, published 2025)

Key:
LRRK2 wild type enzyme = LRRK2 wild type enzyme (Homo sapiens, UniProt Q5S007); test: Biochemical Assay: LRRK2 TR-FRET (LanthaScreen) kinase assay with LRRKtide substrate; settings: LRRK2 Inhibition, Table 8
How it was run: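 TR-FRET detection (Tb-labelled phospho-LRRKtide antibody, EDTA stop, 30 min) followed a 120 min, 23 °C reaction of 3 nM wild-type human LRRK2 with LRRKtide (400 nM) and ATP (25 μM) in Tris pH 8.0. Compounds: 11-point 3-fold series from 10 μM, 15 min enzyme preincubation.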

[1] = biological target: T1, wild type LRRK2 overexpressed in recombinant HEK-293T cells (Homo sapiens, UniProt Q5S007); test: pS935 LRRK2 Cell Assay (HTRF, phospho-LRRK2 Ser935); assay type: cell-based; settings: LRRK2 Inhibition, Table 8, 2 hours compound incubation
T1 construct: host or cells: HEK293T (transient transfection with pCMV-LRRK2 WT plasmid)
T1 sequence (Q5S007 whole entry): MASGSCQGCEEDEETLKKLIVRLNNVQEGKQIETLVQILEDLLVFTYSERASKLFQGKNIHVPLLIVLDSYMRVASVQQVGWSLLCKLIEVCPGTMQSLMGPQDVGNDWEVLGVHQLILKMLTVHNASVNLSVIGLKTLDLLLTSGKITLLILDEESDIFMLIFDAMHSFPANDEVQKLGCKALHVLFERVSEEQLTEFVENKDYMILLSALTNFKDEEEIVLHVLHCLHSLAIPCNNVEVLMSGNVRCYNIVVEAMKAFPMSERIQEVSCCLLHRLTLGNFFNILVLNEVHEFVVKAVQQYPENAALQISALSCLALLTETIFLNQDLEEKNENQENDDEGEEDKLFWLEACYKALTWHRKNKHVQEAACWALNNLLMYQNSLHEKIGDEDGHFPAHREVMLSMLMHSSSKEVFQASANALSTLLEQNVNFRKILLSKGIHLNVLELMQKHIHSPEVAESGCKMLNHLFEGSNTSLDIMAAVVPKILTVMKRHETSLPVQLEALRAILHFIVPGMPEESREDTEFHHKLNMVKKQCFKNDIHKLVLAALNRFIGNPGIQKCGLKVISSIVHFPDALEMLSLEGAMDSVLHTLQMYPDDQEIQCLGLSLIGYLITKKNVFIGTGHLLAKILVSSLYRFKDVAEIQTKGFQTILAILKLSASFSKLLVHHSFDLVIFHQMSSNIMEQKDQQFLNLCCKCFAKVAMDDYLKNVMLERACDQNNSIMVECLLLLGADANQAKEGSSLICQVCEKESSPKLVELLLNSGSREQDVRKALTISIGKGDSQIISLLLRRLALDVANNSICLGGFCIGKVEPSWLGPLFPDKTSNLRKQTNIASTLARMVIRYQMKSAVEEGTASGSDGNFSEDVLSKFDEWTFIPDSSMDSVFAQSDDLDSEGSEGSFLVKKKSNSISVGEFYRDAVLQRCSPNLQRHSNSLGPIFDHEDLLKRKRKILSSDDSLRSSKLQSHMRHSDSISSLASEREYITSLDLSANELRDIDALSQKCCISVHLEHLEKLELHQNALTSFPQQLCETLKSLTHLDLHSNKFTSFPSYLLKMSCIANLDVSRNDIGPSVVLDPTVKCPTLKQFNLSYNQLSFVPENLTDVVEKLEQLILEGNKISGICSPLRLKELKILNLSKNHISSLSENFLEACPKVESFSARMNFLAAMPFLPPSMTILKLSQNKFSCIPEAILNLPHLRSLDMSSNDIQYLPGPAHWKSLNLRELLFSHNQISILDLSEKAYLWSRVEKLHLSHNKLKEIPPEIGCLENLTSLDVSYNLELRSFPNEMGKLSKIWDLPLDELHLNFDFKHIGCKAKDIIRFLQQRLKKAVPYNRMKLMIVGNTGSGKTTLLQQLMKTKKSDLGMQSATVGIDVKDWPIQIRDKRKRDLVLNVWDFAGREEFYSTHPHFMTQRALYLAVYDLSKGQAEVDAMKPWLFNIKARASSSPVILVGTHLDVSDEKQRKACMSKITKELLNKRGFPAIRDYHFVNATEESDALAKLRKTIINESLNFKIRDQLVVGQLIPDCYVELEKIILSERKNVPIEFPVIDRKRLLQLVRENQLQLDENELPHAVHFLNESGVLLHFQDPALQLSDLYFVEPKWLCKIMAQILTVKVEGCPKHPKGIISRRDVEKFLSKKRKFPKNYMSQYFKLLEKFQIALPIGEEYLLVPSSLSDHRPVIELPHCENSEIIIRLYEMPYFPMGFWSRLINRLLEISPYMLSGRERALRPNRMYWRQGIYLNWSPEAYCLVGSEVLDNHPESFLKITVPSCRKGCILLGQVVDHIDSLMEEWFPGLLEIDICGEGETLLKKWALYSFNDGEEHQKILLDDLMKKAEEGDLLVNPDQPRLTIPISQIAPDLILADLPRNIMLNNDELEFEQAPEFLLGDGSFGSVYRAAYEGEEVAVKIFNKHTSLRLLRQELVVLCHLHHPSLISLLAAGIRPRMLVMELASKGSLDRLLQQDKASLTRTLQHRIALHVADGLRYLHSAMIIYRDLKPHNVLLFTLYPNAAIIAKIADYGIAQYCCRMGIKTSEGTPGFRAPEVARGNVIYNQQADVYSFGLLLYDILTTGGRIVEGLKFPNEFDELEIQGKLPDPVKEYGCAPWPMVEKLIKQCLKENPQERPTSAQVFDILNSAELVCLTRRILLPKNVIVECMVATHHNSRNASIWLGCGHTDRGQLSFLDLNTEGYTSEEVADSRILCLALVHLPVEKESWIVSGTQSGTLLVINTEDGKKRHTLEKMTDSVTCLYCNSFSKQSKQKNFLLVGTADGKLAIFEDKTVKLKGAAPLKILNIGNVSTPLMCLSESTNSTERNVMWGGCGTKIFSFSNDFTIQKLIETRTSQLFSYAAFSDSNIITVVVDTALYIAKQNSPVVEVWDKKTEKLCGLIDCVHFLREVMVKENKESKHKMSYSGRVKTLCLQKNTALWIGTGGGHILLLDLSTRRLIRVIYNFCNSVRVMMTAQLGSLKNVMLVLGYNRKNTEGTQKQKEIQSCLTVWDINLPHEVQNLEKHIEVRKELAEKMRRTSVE
How it was run: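 Phospho-Ser935 LRRK2 measured by two-antibody HTRF (Eu-cryptate donor, d2 acceptor; 665/615 nm ratio) after overnight detection at 23° C. Before lysis, transiently LRRK2-transfected HEK-293T cells were exposed 2 h at 37° C to a 9-point, 3-fold series from 10 μM, with DMSO at 0.2%.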

LRRK2 wild type enzyme, sequence (Q5S007 whole entry): as above

Molecule `C[C@@H]1C[C@H](n2c(CC(=O)NC3(C)CCC3)nc3cnc4ccc(C#N)cc4c32)CCO1` [Compound 303, N-1-methylcyclobutyl{3-[(2R,4R)-2-methyltetrahydro-2H-pyran-4-yl]-12-cyano-3,5,8-triazatricyclo[7.4.0.0^2,6]trideca-1(13),2(6),4,7,9,11-hexaen-4-yl}acetamide] has an IC50 (LRRK2 wild type enzyme) of 1.29 nM and an IC50 [1] of 47 nM.
`C[C@@H]1C[C@H](n2c(CC(=O)Nc3cnn(C4CCC4)c3)nc3cnc4ccc(C#N)cc4c32)CCO1` [Compound 305, N-(1-cyclobutyl-4-pyrazolyl){3-[(2R,4R)-2-methyltetrahydro-2H-pyran-4-yl]-12-cyano-3,5,8-triazatricyclo[7.4.0.0^2,6]trideca-1,4,6,8,10,12-hexaen-4-yl}acetamide] gave an IC50 (LRRK2 wild type enzyme) of 0.633 nM and an IC50 [1] of 12.3 nM.
For `C[C@@H]1C[C@H](n2c([C@@H]3CC(=O)N(c4cnn(C)c4)C3)nc3cnc4ccc(C#N)cc4c32)CCO1` [Compound 48, 2-[(3R)-1-(1-methyl-1H-pyrazol-4-yl)-5-oxopyrrolidin-3-yl]-1-[(2R,4R)-2-methyloxan-4-yl]-1H-imidazo[4,5-c]quinoline-8-carbonitrile], the IC50 (LRRK2 wild type enzyme) was 0.921 nM and the IC50 [1] was 110 nM.
`C[C@@H]1C[C@H](n2c(C3CN(C(=O)C4CC4)C3)nc3cnc4ccc(C#N)cc4c32)CCO1` [Compound 68, 2-(1-cyclopropanecarbonylazetidin-3-yl)-1-[(2R,4R)-2-methyloxan-4-yl]-1H-imidazo[4,5-c]quinoline-8-carbonitrile] was tested, and the IC50 (LRRK2 wild type enzyme) was 7.43 nM and the IC50 [1] was 1140 nM.
`C[C@@H]1C[C@H](n2c(C3CCN(S(C)(=O)=O)CC3)nc3cnc4ccc(C#N)cc4c32)CCO1` [Compound 122, 2-(1-methanesulfonylpiperidin-4-yl)-1-[(2R,4R)-2-methyloxan-4-yl]-1H-imidazo[4,5-c]quinoline-8-carbonitrile] showed an IC50 (LRRK2 wild type enzyme) of 2.99 nM and an IC50 [1] of 546 nM.
Molecule `Cc1cc(F)ncc1NC(=O)Cc1nc2cnc3ccc(C#N)cc3c2n1[C@@H]1CCO[C@H](C)C1` [Compound 205, N-(6-fluoro-4-methyl-3-pyridyl){3-[(2R,4R)-2-methyltetrahydro-2H-pyran-4-yl]-12-cyano-3,5,8-triazatricyclo[7.4.0.0^2,6]trideca-1,4,6,8,10,12-hexaen-4-yl}acetamide] has an IC50 (LRRK2 wild type enzyme) of 0.387 nM and an IC50 [1] of 11.1 nM.
Work on `Cc1cncc(NC(=O)Cc2nc3cnc4ccc(C#N)cc4c3n2[C@@H]2CCO[C@H](C)C2)c1` [Compound 269, N-(5-methyl-3-pyridyl){3-[(2R,4R)-2-methyltetrahydro-2H-pyran-4-yl]-12-cyano-3,5,8-triazatricyclo[7.4.0.0^2,6]trideca-1,4,6,8,10,12-hexaen-4-yl}acetamide] yielded an IC50 (LRRK2 wild type enzyme) of 0.379 nM and an IC50 [1] of 5.17 nM.
In the case of `C[C@@H]1C[C@H](n2c(CC(=O)NC3(C#N)CC3)nc3cnc4ccc(C#N)cc4c32)CCO1` [Compound 282, N-1-cyanocyclopropyl{3-[(2R,4R)-2-methyltetrahydro-2H-pyran-4-yl]-12-cyano-3,5,8-triazatricyclo[7.4.0.0^2,6]trideca-1,4,6,8,10,12-hexaen-4-yl}acetamide], the IC50 (LRRK2 wild type enzyme) is reported as 0.619 nM and the IC50 [1] is reported as 188 nM.
With `C[C@@H]1C[C@H](n2c(CC(=O)Nc3ccnn3C)nc3cnc4ccc(C#N)cc4c32)CCO1` [Compound 169, 2-{8-cyano-1-[(2R,4R)-2-methyloxan-4-yl]-1H-imidazo[4,5-c]quinolin-2-yl}-N-(1-methyl-1H-pyrazol-5-yl)acetamide] the IC50 (LRRK2 wild type enzyme) was 0.319 nM and the IC50 [1] was 14.5 nM.
Work on `C[C@@H]1C[C@H](n2c(CC(=O)NCc3cccnc3)nc3cnc4ccc(C#N)cc4c32)CCO1` [Compound 83, 2-{8-cyano-1-[(2R,4R)-2-methyloxan-4-yl]-1H-imidazo[4,5-c]quinolin-2-yl}-N-[(pyridin-3-yl)methyl]acetamide] yielded an IC50 (LRRK2 wild type enzyme) of 0.33 nM and an IC50 [1] of 25.1 nM.
`C[C@@H]1C[C@H](n2c(CC(=O)Nc3cnc(C4CC4)nc3)nc3cnc4ccc(C#N)cc4c32)CCO1` [Compound 300, N-(2-cyclopropyl-5-pyrimidinyl){3-[(2R,4R)-2-methyltetrahydro-2H-pyran-4-yl]-12-cyano-3,5,8-triazatricyclo[7.4.0.0^2,6]trideca-1,4,6,8,10,12-hexaen-4-yl}acetamide] showed an IC50 (LRRK2 wild type enzyme) of 0.382 nM and an IC50 [1] of 10.6 nM.
In the case of `C[C@@H]1C[C@H](n2c(CC(=O)N[C@@H]3C[C@@H]3F)nc3cnc4ccc(C#N)cc4c32)CCO1` [Compound 290, N-[(1R,2S)-2-fluorocyclopropyl]{3-[(2R,4R)-2-methyltetrahydro-2H-pyran-4-yl]-12-cyano-3,5,8-triazatricyclo[7.4.0.0^2,6]trideca-1,4,6,8,10,12-hexaen-4-yl}acetamide], the IC50 (LRRK2 wild type enzyme) is reported as 0.567 nM and the IC50 [1] is reported as 33.4 nM.
`C[C@@H]1C[C@H](n2c(CC(=O)NCCc3ccccn3)nc3cnc4ccc(C#N)cc4c32)CCO1` [Compound 366, N-[2-(2-pyridyl)ethyl]{3-[(2R,4R)-2-methyltetrahydro-2H-pyran-4-yl]-12-cyano-3,5,8-triazatricyclo[7.4.0.0^2,6]trideca-1,4,6,8,10,12-hexaen-4-yl}acetamide] gave an IC50 (LRRK2 wild type enzyme) of 0.587 nM and an IC50 [1] of 28.4 nM.
Molecule `C[C@@H]1C[C@H](n2c(CN3CCCS3(=O)=O)nc3cnc4ccc(C#N)cc4c32)CCO1` [Compound 75, 2-[(1,1-dioxo-126,2-thiazolidin-2-yl)methyl]-1-[(2R,4R)-2-methyloxan-4-yl]-1H-imidazo[4,5-c]quinoline-8-carbonitrile] has an IC50 (LRRK2 wild type enzyme) of 11.1 nM and an IC50 [1] of 590 nM.
`C[C@@H]1C[C@H](n2c(CC(=O)NC3(c4ccccn4)CC3)nc3cnc4ccc(C#N)cc4c32)CCO1` [Compound 363, N-[1-(2-pyridyl)cyclopropyl]{3-[(2R,4R)-2-methyltetrahydro-2H-pyran-4-yl]-12-cyano-3,5,8-triazatricyclo[7.4.0.0^2,6]trideca-1,4,6,8,10,12-hexaen-4-yl}acetamide] gave an IC50 (LRRK2 wild type enzyme) of 0.533 nM and an IC50 [1] of 2.05 nM.
With `C[C@@H]1C[C@H](n2c(C3CC(=O)N([C@H]4CCCOC4)C3)nc3cnc4ccc(C#N)cc4c32)CCO1` (stereo partly drawn) [Compound 52, 1-[(2R,4R)-2-methyloxan-4-yl]-2-{1-[(3S)-oxan-3-yl]-5-oxopyrrolidin-3-yl}-1H-imidazo[4,5-c]quinoline-8-carbonitrile] the IC50 (LRRK2 wild type enzyme) was 2.91 nM and the IC50 [1] was 401 nM.
Molecule `C[C@@H]1C[C@H](n2c(CC(=O)Nc3nccnc3Cl)nc3cnc4ccc(C#N)cc4c32)CCO1` [Compound 308, N-(3-chloro-2-pyrazinyl){3-[(2R,4R)-2-methyltetrahydro-2H-pyran-4-yl]-12-cyano-3,5,8-triazatricyclo[7.4.0.0^2,6]trideca-1(9),2(6),4,7,10,12-hexaen-4-yl}acetamide] has an IC50 (LRRK2 wild type enzyme) of 1.25 nM and an IC50 [1] of 18.6 nM.
Work on `COCCCNC(=O)Cc1nc2cnc3ccc(C#N)cc3c2n1[C@@H]1CCO[C@H](C)C1` [Compound 166, 2-{8-cyano-1-[(2R,4R)-2-methyloxan-4-yl]-1H-imidazo[4,5-c]quinolin-2-yl}-N-(3-methoxypropyl)acetamide] yielded an IC50 (LRRK2 wild type enzyme) of 0.364 nM and an IC50 [1] of 12 nM.
Work on `C[C@@H]1C[C@H](n2c(CC(=O)Nc3cccnc3C#N)nc3cnc4ccc(C#N)cc4c32)CCO1` [Compound 272, N-(2-cyano-3-pyridyl){3-[(2R,4R)-2-methyltetrahydro-2H-pyran-4-yl]-12-cyano-3,5,8-triazatricyclo[7.4.0.0^2,6]trideca-1,4,6,8,10,12-hexaen-4-yl}acetamide] yielded an IC50 (LRRK2 wild type enzyme) of 0.549 nM and an IC50 [1] of 12.5 nM.
Work on `C[C@@H]1C[C@H](n2c(CC(=O)N[C@@H]3C[C@H]3F)nc3cnc4ccc(C#N)cc4c32)CCO1` [Compound 277, N-[(1R,2R)-2-fluorocyclopropyl]{3-[(2R,4R)-2-methyltetrahydro-2H-pyran-4-yl]-12-cyano-3,5,8-triazatricyclo[7.4.0.0^2,6]trideca-1(13),2(6),4,7,9,11-hexaen-4-yl}acetamide] yielded an IC50 (LRRK2 wild type enzyme) of 0.828 nM and an IC50 [1] of 52.2 nM.
Work on `C[C@@H]1C[C@H](n2c(CC3CN(C(=O)OC(C)(C)C)C3)nc3cnc4ccc(C#N)cc4c32)CCO1` [Compound 73, tert-butyl 3-({8-cyano-1-[(2R,4R)-2-methyloxan-4-yl]-1H-imidazo[4,5-c]quinolin-2-yl}methyl)azetidine-1-carboxylate] yielded an IC50 (LRRK2 wild type enzyme) of 3.88 nM and an IC50 [1] of 251 nM.
Molecule `CC(C)Oc1ccc(NC(=O)Cc2nc3cnc4ccc(C#N)cc4c3n2[C@@H]2CCO[C@H](C)C2)cn1` [Compound 273, N-(6-isopropoxy-3-pyridyl){3-[(2R,4R)-2-methyltetrahydro-2H-pyran-4-yl]-12-cyano-3,5,8-triazatricyclo[7.4.0.0^2,6]trideca-1,4,6,8,10,12-hexaen-4-yl}acetamide] has an IC50 (LRRK2 wild type enzyme) of 0.478 nM and an IC50 [1] of 5.59 nM.
`COCC1(CNC(=O)Cc2nc3cnc4ccc(C#N)cc4c3n2[C@@H]2CCO[C@H](C)C2)CC1` [Compound 267, N-[1-(methoxymethyl)cyclopropyl]methyl{3-[(2R,4R)-2-methyltetrahydro-2H-pyran-4-yl]-12-cyano-3,5,8-triazatricyclo[7.4.0.0^2,6]trideca-1,4,6,8,10,12-hexaen-4-yl}acetamide] showed an IC50 (LRRK2 wild type enzyme) of 0.419 nM and an IC50 [1] of 7.51 nM.
`C[C@@H]1C[C@H](n2c(CC(=O)N[C@@H]3C[C@H]3c3cccnc3)nc3cnc4ccc(C#N)cc4c32)CCO1` [Compound 348, N-[(1R,2S)-2-(3-pyridyl)cyclopropyl]{3-[(2R,4R)-2-methyltetrahydro-2H-pyran-4-yl]-12-cyano-3,5,8-triazatricyclo[7.4.0.0^2,6]trideca-1(9),2(6),4,7,10,12-hexaen-4-yl}acetamide] gave an IC50 (LRRK2 wild type enzyme) of 0.724 nM and an IC50 [1] of 32.3 nM.
With `C[C@@H]1C[C@H](n2c(CS(=O)(=O)C3CC3)nc3cnc4ccc(C#N)cc4c32)CCO1` [Compound 74, 2-[(cyclopropanesulfonyl)methyl]-1-[(2R,4R)-2-methyloxan-4-yl]-1H-imidazo[4,5-c]quinoline-8-carbonitrile] the IC50 (LRRK2 wild type enzyme) was 5.92 nM and the IC50 [1] was 430 nM.
